From BindingDB's records for doi:10.1021/acs.jmedchem.3c00963 (n/a, 2023)

Target: Dual specificity protein kinase TTK (Mus musculus) (UniProt P35761)
Test: Inhibition of mouse MPS1

Dual specificity protein kinase TTK (Mus musculus), sequence (P35761 whole entry, looked up): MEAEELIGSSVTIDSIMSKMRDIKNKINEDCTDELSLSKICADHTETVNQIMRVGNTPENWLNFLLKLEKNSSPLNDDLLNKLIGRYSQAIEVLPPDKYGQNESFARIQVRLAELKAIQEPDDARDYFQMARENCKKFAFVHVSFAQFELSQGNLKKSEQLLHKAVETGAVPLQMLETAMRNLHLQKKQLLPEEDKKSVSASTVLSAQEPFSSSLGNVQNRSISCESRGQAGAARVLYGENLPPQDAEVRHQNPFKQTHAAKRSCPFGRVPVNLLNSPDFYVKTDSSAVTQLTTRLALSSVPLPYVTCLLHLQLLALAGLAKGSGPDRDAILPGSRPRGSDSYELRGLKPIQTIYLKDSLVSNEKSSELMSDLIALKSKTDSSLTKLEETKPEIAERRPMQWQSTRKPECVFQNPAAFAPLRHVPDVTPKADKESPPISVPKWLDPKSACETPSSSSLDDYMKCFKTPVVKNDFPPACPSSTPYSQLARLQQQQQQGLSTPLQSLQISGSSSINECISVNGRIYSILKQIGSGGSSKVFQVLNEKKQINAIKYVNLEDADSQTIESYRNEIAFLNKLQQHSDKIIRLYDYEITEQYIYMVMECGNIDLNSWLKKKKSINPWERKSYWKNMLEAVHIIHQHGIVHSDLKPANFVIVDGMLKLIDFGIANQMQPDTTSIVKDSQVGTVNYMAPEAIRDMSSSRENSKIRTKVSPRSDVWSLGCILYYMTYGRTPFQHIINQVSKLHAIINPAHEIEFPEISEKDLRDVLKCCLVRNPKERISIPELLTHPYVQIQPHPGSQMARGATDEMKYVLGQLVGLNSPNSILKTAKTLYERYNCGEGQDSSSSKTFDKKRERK

Compound	IC50 [nM]
CC(C)CNc1nccn2c(-c3ccc(C(=O)NC4CC4)cc3)cnc12	55
CC(C)CNc1nc(-c2cccc3ncccc23)cn2c(-c3ccc(C(=O)NC4CC4)cc3)cnc12	9
